Data from ChEMBL document CHEMBL4334471, “Discovery of 1,8-disubstituted-[1,2,3]triazolo[4,5-c]quinoline derivatives as a new class of Hippo signaling pathway inhibitors” (Bioorg Med Chem Lett, 2019).

Key:
[1] = biological target: Mitogen-activated protein kinase kinase kinase 5 (Homo sapiens) (UniProt Q99683); test: Inhibition of recombinant human ASK1 (649 to 946 residues) assessed as residual activity at 10 uM using myelin basic protein as substrate incubated for 40 mins in presence of [gamma-33ATP] by scintillation counting based radiometry assay relative to control
Sequence of Mitogen-activated protein kinase kinase kinase 5 (Homo sapiens) (Q99683 whole entry, the tested form may be a part): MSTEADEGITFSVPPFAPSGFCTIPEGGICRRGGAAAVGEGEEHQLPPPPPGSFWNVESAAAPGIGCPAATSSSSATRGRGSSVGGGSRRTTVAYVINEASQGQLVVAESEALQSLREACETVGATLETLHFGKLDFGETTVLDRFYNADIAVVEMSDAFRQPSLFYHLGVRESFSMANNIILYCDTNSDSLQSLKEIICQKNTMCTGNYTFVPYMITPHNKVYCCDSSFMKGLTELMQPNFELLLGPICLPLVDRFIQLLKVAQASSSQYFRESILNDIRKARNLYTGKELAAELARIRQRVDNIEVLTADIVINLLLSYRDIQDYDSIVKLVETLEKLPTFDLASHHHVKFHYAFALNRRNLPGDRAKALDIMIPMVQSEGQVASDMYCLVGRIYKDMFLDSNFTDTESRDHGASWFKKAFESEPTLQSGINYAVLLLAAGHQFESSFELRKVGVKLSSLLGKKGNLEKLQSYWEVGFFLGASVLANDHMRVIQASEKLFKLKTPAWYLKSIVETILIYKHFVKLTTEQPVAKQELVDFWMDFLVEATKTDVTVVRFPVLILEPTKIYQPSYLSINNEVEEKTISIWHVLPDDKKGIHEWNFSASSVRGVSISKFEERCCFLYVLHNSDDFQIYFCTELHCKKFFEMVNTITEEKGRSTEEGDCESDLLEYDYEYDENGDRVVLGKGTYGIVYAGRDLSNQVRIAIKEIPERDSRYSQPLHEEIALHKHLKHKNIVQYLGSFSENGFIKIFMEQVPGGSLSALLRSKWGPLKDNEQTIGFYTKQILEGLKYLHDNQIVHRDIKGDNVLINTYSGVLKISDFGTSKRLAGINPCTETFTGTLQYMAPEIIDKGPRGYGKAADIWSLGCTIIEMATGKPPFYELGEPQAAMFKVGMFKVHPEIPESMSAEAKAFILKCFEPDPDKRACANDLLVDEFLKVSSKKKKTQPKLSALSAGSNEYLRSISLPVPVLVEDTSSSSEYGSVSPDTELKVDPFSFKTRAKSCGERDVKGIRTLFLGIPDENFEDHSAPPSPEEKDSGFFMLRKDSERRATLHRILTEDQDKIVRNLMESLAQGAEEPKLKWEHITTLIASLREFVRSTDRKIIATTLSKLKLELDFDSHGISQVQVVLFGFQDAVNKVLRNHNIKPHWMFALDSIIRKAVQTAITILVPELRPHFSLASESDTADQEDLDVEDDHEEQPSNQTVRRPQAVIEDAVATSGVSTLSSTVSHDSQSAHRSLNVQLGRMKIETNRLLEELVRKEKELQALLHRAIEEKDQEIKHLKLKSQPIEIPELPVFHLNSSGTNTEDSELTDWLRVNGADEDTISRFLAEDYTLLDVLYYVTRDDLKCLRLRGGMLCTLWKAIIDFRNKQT

[2] = biological target: Serine/threonine-protein kinase BRSK1 (Homo sapiens) (UniProt Q8TDC3); test: Inhibition of recombinant human BRSK1 ( 2 to end residues) assessed as residual activity at 10 uM using KKKVSRSGLYRSPSMPENLNRPR substrate incubated for 40 mins in presence of [gamma-33ATP] by scintillation counting based radiometry assay relative to control
Sequence of Serine/threonine-protein kinase BRSK1 (Homo sapiens) (Q8TDC3 whole entry): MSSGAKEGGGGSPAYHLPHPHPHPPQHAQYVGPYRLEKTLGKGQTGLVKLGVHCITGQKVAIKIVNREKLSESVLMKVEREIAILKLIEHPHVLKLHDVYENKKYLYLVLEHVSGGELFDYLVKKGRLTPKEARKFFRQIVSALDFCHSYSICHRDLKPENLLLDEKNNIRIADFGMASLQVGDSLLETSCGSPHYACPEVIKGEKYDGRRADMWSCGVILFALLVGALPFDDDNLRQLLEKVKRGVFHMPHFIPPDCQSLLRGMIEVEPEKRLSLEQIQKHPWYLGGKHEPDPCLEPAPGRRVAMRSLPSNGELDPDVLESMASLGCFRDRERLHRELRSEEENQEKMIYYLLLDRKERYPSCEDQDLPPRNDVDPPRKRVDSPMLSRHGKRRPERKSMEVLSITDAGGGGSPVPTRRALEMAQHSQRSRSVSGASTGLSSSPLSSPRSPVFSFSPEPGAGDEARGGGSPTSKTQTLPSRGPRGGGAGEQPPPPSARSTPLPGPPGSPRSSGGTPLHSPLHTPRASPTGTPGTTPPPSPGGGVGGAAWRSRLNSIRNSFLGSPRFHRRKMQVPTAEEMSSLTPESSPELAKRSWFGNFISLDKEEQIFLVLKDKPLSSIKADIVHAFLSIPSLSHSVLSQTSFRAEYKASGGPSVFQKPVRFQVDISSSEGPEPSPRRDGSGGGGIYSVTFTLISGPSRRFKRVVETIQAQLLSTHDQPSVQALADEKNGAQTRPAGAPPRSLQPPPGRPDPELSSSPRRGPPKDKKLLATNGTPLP

[3] = biological target: Calcium/calmodulin-dependent protein kinase type 1G (Homo sapiens) (UniProt Q96NX5); test: Inhibition of recombinant full length human CaMKIgamma assessed as residual activity at 10 uM using KKLRRTLSFAEPG as substrate incubated for 40 mins in presence of [gamma-33ATP] by scintillation counting based radiometry assay relative to control
Sequence of Calcium/calmodulin-dependent protein kinase type 1G (Homo sapiens) (Q96NX5 whole entry): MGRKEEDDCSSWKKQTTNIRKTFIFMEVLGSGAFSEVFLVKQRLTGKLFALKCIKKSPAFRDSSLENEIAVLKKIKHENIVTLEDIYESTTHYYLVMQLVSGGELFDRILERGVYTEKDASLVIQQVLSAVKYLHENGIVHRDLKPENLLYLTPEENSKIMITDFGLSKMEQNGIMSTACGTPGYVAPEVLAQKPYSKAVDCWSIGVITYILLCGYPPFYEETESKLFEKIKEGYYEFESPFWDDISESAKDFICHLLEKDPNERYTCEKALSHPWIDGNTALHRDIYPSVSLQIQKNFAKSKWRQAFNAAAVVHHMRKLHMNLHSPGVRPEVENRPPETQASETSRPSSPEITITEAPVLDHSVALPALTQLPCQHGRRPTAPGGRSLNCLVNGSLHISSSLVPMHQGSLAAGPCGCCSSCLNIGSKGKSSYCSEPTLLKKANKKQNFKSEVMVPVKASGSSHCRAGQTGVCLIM

[4] = biological target: Cyclin-dependent kinase 14/Cyclin-Y (Homo sapiens) (UniProt O94921+Q8ND76); test: Inhibition of recombinant full length human CDK14/cyclinY assessed as residual activity at 10 uM in presence of [gamma-33ATP] by scintillation counting based radiometry assay relative to control; type: protein-complex assay
[5] = test system: Serine/threonine-protein kinase Chk2 (Homo sapiens), O96017 [R145W]; test: Inhibition of recombinant human CHK2 R145W mutant (5 to end residues) assessed as residual activity at 10 uM using KKKVSRSGLYRSPSMPENLNRPR as substrate incubated for 40 mins in presence of [gamma-33ATP] by scintillation counting based radiometry assay relative to control
Sequence of Serine/threonine-protein kinase Chk2 (Homo sapiens), O96017 [R145W] (O96017 whole entry R145W): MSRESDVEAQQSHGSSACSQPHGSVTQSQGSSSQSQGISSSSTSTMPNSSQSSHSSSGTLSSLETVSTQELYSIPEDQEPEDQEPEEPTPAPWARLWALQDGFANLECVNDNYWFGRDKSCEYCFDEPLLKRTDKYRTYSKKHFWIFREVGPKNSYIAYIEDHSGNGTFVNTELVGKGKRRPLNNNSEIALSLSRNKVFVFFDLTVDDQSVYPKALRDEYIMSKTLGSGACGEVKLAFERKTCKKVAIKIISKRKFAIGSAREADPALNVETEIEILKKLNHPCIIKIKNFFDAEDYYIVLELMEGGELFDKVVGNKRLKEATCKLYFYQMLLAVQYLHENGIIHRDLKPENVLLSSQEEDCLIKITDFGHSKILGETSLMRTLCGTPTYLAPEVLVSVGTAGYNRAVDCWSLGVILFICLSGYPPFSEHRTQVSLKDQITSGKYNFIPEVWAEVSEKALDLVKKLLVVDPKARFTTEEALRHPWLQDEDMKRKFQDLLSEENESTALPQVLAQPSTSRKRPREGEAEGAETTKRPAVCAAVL

[6] = biological target: Dual specificity protein kinase CLK1 (Homo sapiens) (UniProt P49759); test: Inhibition of recombinant human CLK1 (130 to end residues) assessed as residual activity at 10 uM using ERMRPRKRQGSVRRRV as substrate incubated 40 mins in presence of [gamma-33ATP] by scintillation counting based radiometry assay relative to control
[7] = biological target: Citron Rho-interacting kinase (Homo sapiens) (UniProt O14578); test: Inhibition of recombinant human CRIK assessed as residual activity at 10 uM KKLRRTLSVA as substrate incubated 120 mins in presence of [gamma-33ATP] by scintillation counting based radiometry assay relative to control
[8] = biological target: Serine/threonine-protein kinase DCLK2 (Homo sapiens) (UniProt Q8N568); test: Inhibition of recombinant human DCAMKL2 (376 to end residues) assessed as residual activity at 10 uM using KKLNRTLSFAEPG as substrate at 40 mins in presence of [gamma-33ATP] by scintillation counting based radiometry assay relative to control
[9] = biological target: Serine/threonine-protein kinase 17B (Homo sapiens) (UniProt O94768); test: Inhibition of recombinant human DRAK2 assessed as residual activity at 10 uM using KKRPQRRYSNVF as substrate at 120 mins in presence of [gamma-33ATP] by scintillation counting based radiometry assay relative to control
Sequence of Serine/threonine-protein kinase 17B (Homo sapiens) (O94768 whole entry): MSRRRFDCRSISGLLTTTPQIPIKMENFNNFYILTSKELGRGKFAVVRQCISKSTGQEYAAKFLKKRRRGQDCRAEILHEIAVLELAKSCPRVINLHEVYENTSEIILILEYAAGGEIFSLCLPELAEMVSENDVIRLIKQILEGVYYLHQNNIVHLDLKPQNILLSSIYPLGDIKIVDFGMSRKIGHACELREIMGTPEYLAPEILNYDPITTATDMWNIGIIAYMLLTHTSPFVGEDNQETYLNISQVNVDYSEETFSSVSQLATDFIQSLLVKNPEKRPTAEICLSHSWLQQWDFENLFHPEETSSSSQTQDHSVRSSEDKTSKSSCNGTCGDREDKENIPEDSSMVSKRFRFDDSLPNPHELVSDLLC

[10] = test system: Epidermal growth factor receptor (Homo sapiens), P00533 [L858R]; test: Inhibition of recombinant human EGFR L858R mutant (696 to end residues) assessed as residual activity at 10 uM using poly(Glu, Tyr) 4:1 as substrate at 40 mins in presence of [gamma-33ATP] by scintillation counting based radiometry assay relative to control
[11] = biological target: Insulin receptor-related protein (Homo sapiens) (UniProt P14616); test: Inhibition of human IRR (943 to 1266 residues) assessed as residual activity at 10 uM using myelin basic protein as substrate after 40 mins by [gamma-33ATP] radiometric assay relative to control
[12] = test system: Hepatocyte growth factor receptor (Homo sapiens), P08581 [Y1230H]; test: Inhibition of recombinant human MET A1209G/V1290L/Y1248H mutant (974 to end residues) assessed as residual activity at 10 uM using KKKGQEEEYVFIE as substrate incubated for 40 mins in presence of [gamma-33ATP by scintillation counting based radiometry assay relative to control
[13] = biological target: STE20-like serine/threonine-protein kinase (Homo sapiens) (UniProt Q9H2G2); test: Inhibition of recombinant human SLK (1 to 373 residues) assessed as residual activity at 10 uM using RLGRDKYKTLRQIRQ as substrate incubated for 40 mins in presence of [gamma33P]ATP by scintillation counting based radiometry assay relative to control
Sequence of STE20-like serine/threonine-protein kinase (Homo sapiens) (Q9H2G2 whole entry, looked up, the tested form may be a part): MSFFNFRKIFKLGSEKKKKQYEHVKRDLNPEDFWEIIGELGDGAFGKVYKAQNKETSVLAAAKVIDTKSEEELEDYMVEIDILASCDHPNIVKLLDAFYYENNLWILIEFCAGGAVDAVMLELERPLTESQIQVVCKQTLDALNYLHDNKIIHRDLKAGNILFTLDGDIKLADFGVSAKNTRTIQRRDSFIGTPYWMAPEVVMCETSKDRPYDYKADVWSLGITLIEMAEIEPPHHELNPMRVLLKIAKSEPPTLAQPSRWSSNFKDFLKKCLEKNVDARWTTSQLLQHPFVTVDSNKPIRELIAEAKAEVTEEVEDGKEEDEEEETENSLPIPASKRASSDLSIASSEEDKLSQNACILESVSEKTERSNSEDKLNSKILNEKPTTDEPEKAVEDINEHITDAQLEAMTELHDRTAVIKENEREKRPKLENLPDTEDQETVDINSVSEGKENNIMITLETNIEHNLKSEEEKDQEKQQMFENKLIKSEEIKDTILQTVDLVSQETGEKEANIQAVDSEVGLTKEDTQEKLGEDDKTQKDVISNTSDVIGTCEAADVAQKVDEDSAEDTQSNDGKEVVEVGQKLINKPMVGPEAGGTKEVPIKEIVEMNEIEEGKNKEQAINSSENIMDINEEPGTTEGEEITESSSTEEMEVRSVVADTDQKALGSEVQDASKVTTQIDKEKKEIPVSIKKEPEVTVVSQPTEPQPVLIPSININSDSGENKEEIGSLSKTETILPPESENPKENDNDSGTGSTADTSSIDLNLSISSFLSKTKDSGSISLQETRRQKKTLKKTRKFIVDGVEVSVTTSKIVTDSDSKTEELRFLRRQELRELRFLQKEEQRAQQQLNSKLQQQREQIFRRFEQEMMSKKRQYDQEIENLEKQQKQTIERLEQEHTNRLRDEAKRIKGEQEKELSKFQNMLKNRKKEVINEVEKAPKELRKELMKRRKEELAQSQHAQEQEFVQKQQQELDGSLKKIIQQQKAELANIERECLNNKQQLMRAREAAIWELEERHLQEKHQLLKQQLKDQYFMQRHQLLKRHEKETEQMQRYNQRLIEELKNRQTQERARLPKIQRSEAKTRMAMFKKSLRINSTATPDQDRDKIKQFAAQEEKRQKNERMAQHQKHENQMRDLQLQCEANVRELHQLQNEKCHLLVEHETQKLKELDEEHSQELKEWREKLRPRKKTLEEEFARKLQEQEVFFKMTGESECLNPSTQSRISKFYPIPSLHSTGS

[14] = biological target: Tyrosine-protein kinase SYK (Homo sapiens) (UniProt P43405); test: Inhibition of recombinant human full length SYK assessed as residual activity at 10 uM using poly(Glu, Tyr) 4:1 as substrate incubated for 40 mins in presence of [gamma33P]ATP by scintillation counting based radiometry assay relative to control
[15] = biological target: Mitogen-activated protein kinase kinase kinase 7 (Homo sapiens) (UniProt O43318); test: Inhibition of recombinant human TAK1 (1 to 303 residues) assessed as residual activity at 10 uM using casein as substrate incubated for 40 mins in presence of [gamma33P]ATP by scintillation counting based radiometry assay relative to control
[16] = biological target: Serine/threonine-protein kinase TAO2 (Homo sapiens) (UniProt Q9UL54); test: Inhibition of recombinant human TAO2 (1 to 320 residues) assessed as residual activity at 10 uM using myelin basic protein as substrate incubated for 40 mins in presence of [gamma33P]ATP by scintillation counting based radiometry assay relative to control
[17] = test system: Angiopoietin-1 receptor (Homo sapiens), Q02763 [Q939H,Q940H,R849W]; test: Inhibition of recombinant human TIE2 Q939H/Q940H/R849W mutant (771 to end residues) assessed as residual activity at 10 uM using EFPIYDFLPAKKK as substrate incubated for 40 mins in presence of [gamma33P]ATP by scintillation counting based radiometry assay relative to control
[18] = biological target: NT-3 growth factor receptor (Homo sapiens) (UniProt Q16288); test: Inhibition of recombinant human TRKC (510 to end residues) assessed as residual activity at 10 uM using GEEPLYWSFPAKK as substrate incubated for 40 mins in presence of [gamma33P]ATP by scintillation counting based radiometry assay relative to control
[19] = biological target: Testis-specific serine/threonine-protein kinase 2 (Homo sapiens) (UniProt Q96PF2); test: Inhibition of recombinant full-length human TSSK2 assessed as residual activity at 10 uM using KKKVSRSGLYRSPSMPENLNRPR as substrate incubated for 40 mins in presence of [gamma33P]ATP by scintillation counting based radiometry assay relative to control
Mus musculus = species: Mus musculus; test: Inhibition of recombinant full length mouse PI3K p110/p85 assessed as residual activity at 10 uM using phosphatidylinositol-4, 5-bisphosphate as substrate incubated for 40 mins in presence of [gamma33P]ATP by scintillation counting based radiometry assay relative to control

For `C[C@@H](c1ccccc1)n1nnc2cnc3ccc(-c4cnc5[nH]ccc5c4)cc3c21`, the Activity [1] was 58%, the Activity [2] was 36% and the Activity [3] was 47%. The Activity [4] was 92%, the Activity [5] was 81% and the Activity [6] was 38%. The Activity [7] was 80%, the Activity [8] was 61% and the Activity [9] was 64%. It also gave an Activity [10] of 40%, an Activity [11] of 86% and an Activity [12] of 79%. For the same compound, the Activity [13] was 75%, the Activity [14] was 41% and the Activity [15] was 91%. It also gave an Activity [16] of 85%, an Activity [17] of 103% and an Activity [18] of 2%. For the same compound, the Activity [19] was 63% and the Activity (Mus musculus) was 4 to 12%.
